These results are taken from patent publication US8865887B2, “Method for synthesizing calixarene and/or cyclodextrin copolymers, terpolymers and tetrapolymers, and uses thereof” (priority 2009, dated 2014).

≈ marks a conversion by molar mass, not a printed value. Like-named read-outs stand apart in the source and are kept apart here.

How the values of data set [1] were obtained:
NIM is used to treat extra-articular and articular inflammatory forms. […] Phase solubility study was carried out according to the method described by Higuchi to study the influence of the complexation of different cyclodextrins on the solubility of NIM. Native cyclodextrins, modified cyclodextrins, cyclodextrin copolymers and cyclodextrin tetrapolymers were used. The cyclodextrin tetrapolymer, based on 35% of alpha-cyclodextrin, 35% beta-cyclodextrin and 30% gamma-cyclodextrin, is synthesized by direct melt polycondensation according to the example 1 and the ratio cyclodextrin/citric acid is 1/3.
Phase Solubility Method: Higuchi's Method
Suspensions were shaken at a temperature of 37° C. on a rotary flask shaker for 7 days and supernatants were filtered through polycarbonate membrane (0.45 μm pore size).

The conditions of data set [2]: native cyclodextrins; cited from earlier work.

In data set [1], `OC[C@H]1O[C@@H]2O[C@H]3[C@H](O)[C@@H](O)[C@@H](O[C@H]4[C@H](O)[C@@H](O)[C@@H](O[C@H]5[C@H](O)[C@@H](O)[C@@H](O[C@H]6[C@H](O)[C@@H](O)[C@@H](O[C@H]7[C@H](O)[C@@H](O)[C@@H](O[C@H]8[C@H](O)[C@@H](O)[C@@H](O[C@H]1[C@H](O)[C@H]2O)O[C@@H]8CO)O[C@@H]7CO)O[C@@H]6CO)O[C@@H]5CO)O[C@@H]4CO)O[C@@H]3CO` [beta-CD, β-cyclodextrin] came in with a Kc of 0.473 mM⁻¹. In data set [1] (7 days), the “[Nimésulid] max.” value turned out to be 0.09249 mg/mL.
As to `OC[C@H]1O[C@@H]2O[C@H]3[C@H](O)[C@@H](O)[C@@H](O[C@H]4[C@H](O)[C@@H](O)[C@@H](O[C@H]5[C@H](O)[C@@H](O)[C@@H](O[C@H]6[C@H](O)[C@@H](O)[C@@H](O[C@H]7[C@H](O)[C@@H](O)[C@@H](O[C@H]1[C@H](O)[C@H]2O)O[C@@H]7CO)O[C@@H]6CO)O[C@@H]5CO)O[C@@H]4CO)O[C@@H]3CO` [alpha-CD, α-cyclodextrin], in data set [1], the Kc is 0.045 mM⁻¹ and the “[Nimésulid] max.” value was determined as 0.07708 mg/mL. The solubility in water in data set [2] is 127 mg/mL (≈ 131 mM).
Consider `OC[C@H]1O[C@@H]2O[C@H]3[C@H](O)[C@@H](O)[C@@H](O[C@H]4[C@H](O)[C@@H](O)[C@@H](O[C@H]5[C@H](O)[C@@H](O)[C@@H](O[C@H]6[C@H](O)[C@@H](O)[C@@H](O[C@H]7[C@H](O)[C@@H](O)[C@@H](O[C@H]8[C@H](O)[C@@H](O)[C@@H](O[C@H]9[C@H](O)[C@@H](O)[C@@H](O[C@H]1[C@H](O)[C@H]2O)O[C@@H]9CO)O[C@@H]8CO)O[C@@H]7CO)O[C@@H]6CO)O[C@@H]5CO)O[C@@H]4CO)O[C@@H]3CO` [gamma-CD, γ-cyclodextrin], for which, in data set [1], the Kc came out at 0.0646 mM⁻¹ and the “[Nimésulid] max.” value was 0.1449 mg/mL. For the same compound, the solubility in water in data set [2] is 236 mg/mL (≈ 182 mM).
